Results as given in PubChem BioAssay (NCI).
Where “and” joins values, the source holds several entries; their conditions need not be identical. Identical values can stand only once.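 Where inhibition never reached the appropriate level, the endpoint shown equals the highest concentration tested. Otherwise, values were interpolated linearly from a five-concentration, 48-hour dose response in 96-well plates. GI50 marks 50% less growth. TGI denotes the concentration required for complete inhibition of growth.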

The compounds below were run on NCI/ADR-RES ovarian (assay: NCI-60 cell line screen, 48 h).
`CC/C=C\C[C@H]1C/C=C2/C(=O)C=C[C@@H]2C/C=C\CCCC(=O)O1` was tested, and the GI50 was 0.405 µM and the TGI was 7.32 µM.

These compounds were tested on HS 578T breast (assay: NCI-60 cell line screen, 48 h).
`O=c1c2ccccc2c(=O)c2c1[nH]c1c(-c3ccccc3)c(-c3ccccc3)c(=O)c12` showed a GI50 of 5.67 µM and a TGI of 31.1 µM. In the case of `CCc1nc(C(N)=O)c(Nc2ccc(N3CCC(N4CCN(C)CC4)CC3)c(OC)c2)nc1NC1CCOCC1`, the GI50 is reported as 1.56 µM and 0.514 µM and 1.85 µM and the TGI is reported as 9.48 µM and > 2.32 µM and 11.3 µM. Compound `CC/C=C\C[C@H]1C/C=C2/C(=O)C=C[C@@H]2C/C=C\CCCC(=O)O1` has a GI50 of 4.34 µM and a TGI of 38.1 µM.

What follows are compounds tested on ACHN renal (assay: NCI-60 cell line screen, 48 h).
`CCOC(=O)C1C2CCC1CC(=NNc1ccc([N+](=O)[O-])cc1[N+](=O)[O-])C2` (stereo unspecified) was tested, and the TGI was > 50 µM. In the case of `O=c1c2ccccc2c(=O)c2c1[nH]c1c(-c3ccccc3)c(-c3ccccc3)c(=O)c12`, the GI50 is reported as 1.93 µM and the TGI is reported as 3.62 µM. For `CCc1nc(C(N)=O)c(Nc2ccc(N3CCC(N4CCN(C)CC4)CC3)c(OC)c2)nc1NC1CCOCC1`, the GI50 was 2.07 µM and 0.42 µM and 1.48 µM and the TGI was 17.1 µM and > 10 µM and 15.4 µM. `CC/C=C\C[C@H]1C/C=C2/C(=O)C=C[C@@H]2C/C=C\CCCC(=O)O1` showed a GI50 of 0.197 µM and a TGI of 0.393 µM.

The compounds below were run on SK-MEL-2 melanoma (assay: NCI-60 cell line screen, 48 h).
In the case of `CCOC(=O)C1C2CCC1CC(=NNc1ccc([N+](=O)[O-])cc1[N+](=O)[O-])C2` (stereo unspecified), the TGI is reported as > 50 µM. Compound `O=c1c2ccccc2c(=O)c2c1[nH]c1c(-c3ccccc3)c(-c3ccccc3)c(=O)c12` has a GI50 of 2.84 µM and a TGI of 15.6 µM. `CC/C=C\C[C@H]1C/C=C2/C(=O)C=C[C@@H]2C/C=C\CCCC(=O)O1` showed a GI50 of 1.86 µM and a TGI of 4.87 µM.

These compounds were tested on SN12C renal (assay: NCI-60 cell line screen, 48 h).
With `CCOC(=O)C1C2CCC1CC(=NNc1ccc([N+](=O)[O-])cc1[N+](=O)[O-])C2` (stereo unspecified) the TGI was > 50 µM. Compound `O=c1c2ccccc2c(=O)c2c1[nH]c1c(-c3ccccc3)c(-c3ccccc3)c(=O)c12` has a GI50 of 3.57 µM and a TGI of 16 µM. `CCc1nc(C(N)=O)c(Nc2ccc(N3CCC(N4CCN(C)CC4)CC3)c(OC)c2)nc1NC1CCOCC1` was tested, and the GI50 was 0.545 µM and 0.247 µM and 0.491 µM and the TGI was 20.2 µM and > 10 µM and 17.5 µM. `CC/C=C\C[C@H]1C/C=C2/C(=O)C=C[C@@H]2C/C=C\CCCC(=O)O1` was tested, and the GI50 was 0.986 µM and the TGI was 4.34 µM.

Each compound was assayed on 786-0 renal (assay: NCI-60 cell line screen, 48 h).
For `CCOC(=O)C1C2CCC1CC(=NNc1ccc([N+](=O)[O-])cc1[N+](=O)[O-])C2` (stereo unspecified), the TGI was > 50 µM. With `O=c1c2ccccc2c(=O)c2c1[nH]c1c(-c3ccccc3)c(-c3ccccc3)c(=O)c12` the GI50 was 3.96 µM and the TGI was 14.9 µM. For `CCc1nc(C(N)=O)c(Nc2ccc(N3CCC(N4CCN(C)CC4)CC3)c(OC)c2)nc1NC1CCOCC1`, the GI50 was 2.48 µM and 0.461 µM and 2.38 µM and the TGI was 13.8 µM and > 10 µM and 14.1 µM. Compound `CC/C=C\C[C@H]1C/C=C2/C(=O)C=C[C@@H]2C/C=C\CCCC(=O)O1` has a GI50 of 0.637 µM and a TGI of 1.89 µM.

Each compound was assayed on SNB-75 CNS (assay: NCI-60 cell line screen, 48 h).
`CCOC(=O)C1C2CCC1CC(=NNc1ccc([N+](=O)[O-])cc1[N+](=O)[O-])C2` (stereo unspecified) was tested, and the TGI was > 50 µM. `O=c1c2ccccc2c(=O)c2c1[nH]c1c(-c3ccccc3)c(-c3ccccc3)c(=O)c12` gave a GI50 of 15.1 µM and a TGI of 52.1 µM. `CCc1nc(C(N)=O)c(Nc2ccc(N3CCC(N4CCN(C)CC4)CC3)c(OC)c2)nc1NC1CCOCC1` was tested, and the GI50 was 0.598 µM and 0.423 µM and 0.67 µM and the TGI was 5.4 µM and 1.91 µM and 7.74 µM. In the case of `CC/C=C\C[C@H]1C/C=C2/C(=O)C=C[C@@H]2C/C=C\CCCC(=O)O1`, the GI50 is reported as 4.02 µM and the TGI is reported as 18 µM.

What follows are compounds tested on COLO 205 colon (assay: NCI-60 cell line screen, 48 h).
For `CCOC(=O)C1C2CCC1CC(=NNc1ccc([N+](=O)[O-])cc1[N+](=O)[O-])C2` (stereo unspecified), the TGI was > 50 µM. With `O=c1c2ccccc2c(=O)c2c1[nH]c1c(-c3ccccc3)c(-c3ccccc3)c(=O)c12` the GI50 was 3.94 µM and the TGI was 13.1 µM. With `CCc1nc(C(N)=O)c(Nc2ccc(N3CCC(N4CCN(C)CC4)CC3)c(OC)c2)nc1NC1CCOCC1` the GI50 was 1.55 µM and 0.281 µM and 1.57 µM and the TGI was 9.65 µM and > 1.98 µM and 14.2 µM. `CC/C=C\C[C@H]1C/C=C2/C(=O)C=C[C@@H]2C/C=C\CCCC(=O)O1` showed a GI50 of 0.708 µM and a TGI of 2.64 µM.

The compounds below were run on OVCAR-5 ovarian (assay: NCI-60 cell line screen, 48 h).
`CCOC(=O)C1C2CCC1CC(=NNc1ccc([N+](=O)[O-])cc1[N+](=O)[O-])C2` (stereo unspecified) was tested, and the TGI was > 50 µM. For `O=c1c2ccccc2c(=O)c2c1[nH]c1c(-c3ccccc3)c(-c3ccccc3)c(=O)c12`, the GI50 was 4.27 µM and the TGI was 14.7 µM. For `CCc1nc(C(N)=O)c(Nc2ccc(N3CCC(N4CCN(C)CC4)CC3)c(OC)c2)nc1NC1CCOCC1`, the GI50 was 0.484 µM and 0.279 µM and 0.486 µM and the TGI was 14.5 µM and > 10 µM. `CC/C=C\C[C@H]1C/C=C2/C(=O)C=C[C@@H]2C/C=C\CCCC(=O)O1` showed a GI50 of 0.567 µM and a TGI of 2.53 µM.

What follows are compounds tested on U251 CNS (assay: NCI-60 cell line screen, 48 h).
In the case of `CCOC(=O)C1C2CCC1CC(=NNc1ccc([N+](=O)[O-])cc1[N+](=O)[O-])C2` (stereo unspecified), the TGI is reported as > 50 µM. Compound `O=c1c2ccccc2c(=O)c2c1[nH]c1c(-c3ccccc3)c(-c3ccccc3)c(=O)c12` has a GI50 of 2.27 µM and a TGI of 4.9 µM. For `CCc1nc(C(N)=O)c(Nc2ccc(N3CCC(N4CCN(C)CC4)CC3)c(OC)c2)nc1NC1CCOCC1`, the GI50 was 5.9 µM and 1.28 µM and 7.96 µM and the TGI was 19.8 µM and > 3.84 µM and 21.2 µM. Compound `CC/C=C\C[C@H]1C/C=C2/C(=O)C=C[C@@H]2C/C=C\CCCC(=O)O1` has a GI50 of 0.779 µM and a TGI of 2.49 µM.

What follows are compounds tested on KM12 colon (assay: NCI-60 cell line screen, 48 h).
For `CCOC(=O)C1C2CCC1CC(=NNc1ccc([N+](=O)[O-])cc1[N+](=O)[O-])C2` (stereo unspecified), the TGI was > 50 µM. `O=c1c2ccccc2c(=O)c2c1[nH]c1c(-c3ccccc3)c(-c3ccccc3)c(=O)c12` gave a GI50 of 2.3 µM and a TGI of 6.34 µM. For `CCc1nc(C(N)=O)c(Nc2ccc(N3CCC(N4CCN(C)CC4)CC3)c(OC)c2)nc1NC1CCOCC1`, the GI50 was 0.0933 µM and 0.0338 µM and 0.0649 µM and the TGI was 12.8 µM and > 10 µM and 12 µM. In the case of `CC/C=C\C[C@H]1C/C=C2/C(=O)C=C[C@@H]2C/C=C\CCCC(=O)O1`, the GI50 is reported as 0.94 µM and the TGI is reported as 4.44 µM.

The compounds below were run on A549 NSCLC (assay: NCI-60 cell line screen, 48 h).
`CCOC(=O)C1C2CCC1CC(=NNc1ccc([N+](=O)[O-])cc1[N+](=O)[O-])C2` (stereo unspecified) was tested, and the TGI was > 50 µM. With `O=c1c2ccccc2c(=O)c2c1[nH]c1c(-c3ccccc3)c(-c3ccccc3)c(=O)c12` the GI50 was 2.07 µM and the TGI was 6.6 µM. For `CCc1nc(C(N)=O)c(Nc2ccc(N3CCC(N4CCN(C)CC4)CC3)c(OC)c2)nc1NC1CCOCC1`, the GI50 was 2.35 µM and 0.379 µM and 2.61 µM and the TGI was 15.2 µM and > 10 µM and 16.1 µM. Work on `CC/C=C\C[C@H]1C/C=C2/C(=O)C=C[C@@H]2C/C=C\CCCC(=O)O1` yielded a GI50 of 2.23 µM and a TGI of 9.05 µM.

These compounds were tested on RPMI-8226 leukemia (assay: NCI-60 cell line screen, 48 h).
For `CCOC(=O)C1C2CCC1CC(=NNc1ccc([N+](=O)[O-])cc1[N+](=O)[O-])C2` (stereo unspecified), the TGI was > 50 µM. With `O=c1c2ccccc2c(=O)c2c1[nH]c1c(-c3ccccc3)c(-c3ccccc3)c(=O)c12` the GI50 was 2.07 µM and the TGI was 12 µM. `CCc1nc(C(N)=O)c(Nc2ccc(N3CCC(N4CCN(C)CC4)CC3)c(OC)c2)nc1NC1CCOCC1` was tested, and the TGI was 30.8 µM and > 2.71 µM and 36.4 µM. With `CC/C=C\C[C@H]1C/C=C2/C(=O)C=C[C@@H]2C/C=C\CCCC(=O)O1` the GI50 was 0.352 µM and the TGI was 4.03 µM.

Each compound was assayed on MCF7 breast (assay: NCI-60 cell line screen, 48 h).
With `CCOC(=O)C1C2CCC1CC(=NNc1ccc([N+](=O)[O-])cc1[N+](=O)[O-])C2` (stereo unspecified) the TGI was > 50 µM. `O=c1c2ccccc2c(=O)c2c1[nH]c1c(-c3ccccc3)c(-c3ccccc3)c(=O)c12` was tested, and the GI50 was 2.48 µM and the TGI was > 100 µM. `CCc1nc(C(N)=O)c(Nc2ccc(N3CCC(N4CCN(C)CC4)CC3)c(OC)c2)nc1NC1CCOCC1` was tested, and the GI50 was 0.672 µM and 0.258 µM and 0.493 µM and the TGI was 17.2 µM and > 10 µM and 17.7 µM. Work on `CC/C=C\C[C@H]1C/C=C2/C(=O)C=C[C@@H]2C/C=C\CCCC(=O)O1` yielded a GI50 of 0.395 µM and a TGI of 8.06 µM.

What follows are compounds tested on LOX IMVI melanoma (assay: NCI-60 cell line screen, 48 h).
With `CCOC(=O)C1C2CCC1CC(=NNc1ccc([N+](=O)[O-])cc1[N+](=O)[O-])C2` (stereo unspecified) the TGI was > 50 µM. Work on `O=c1c2ccccc2c(=O)c2c1[nH]c1c(-c3ccccc3)c(-c3ccccc3)c(=O)c12` yielded a GI50 of 2.55 µM and a TGI of 6.2 µM. `CCc1nc(C(N)=O)c(Nc2ccc(N3CCC(N4CCN(C)CC4)CC3)c(OC)c2)nc1NC1CCOCC1` was tested, and the GI50 was 2.12 µM and 0.337 µM and 2.82 µM and the TGI was 17.6 µM and > 2.34 µM and 19.4 µM. `CC/C=C\C[C@H]1C/C=C2/C(=O)C=C[C@@H]2C/C=C\CCCC(=O)O1` gave a GI50 of 0.273 µM and a TGI of 0.865 µM.
